This passage reports MIC results from article PMC9600172, “N-Succinyltransferase Encoded by a Cryptic Siderophore Biosynthesis Gene Cluster in Streptomyces Modifies Structurally Distinct Antibiotics” (mBio, 2022).

Values after ≈ are worked out from the molar mass of the structure shown. Where two headings read alike, the source gives them in different places.

Parameters in all cases: Broth microdilution MIC following CLSI protocol, bacterial growth inhibition, at Medina Foundation
(In general: Dilution methods test growth across graded concentrations, often in twofold steps.)

The subject of test [1] is T1, Staphylococcus aureus MSSA MB2865.
T1 construct: MB2865 (MSSA)
In words: microbe, parasite or virus in culture. How it is done:
(§1) Testing of antimicrobial activities of desertomycin A and X was done by disk diffusion assay using Bacillus subtilis 164, Escherichia coli DH5a, and Saccharomyces cerevisiae BY4742 as test organisms. […] In vitro susceptibility for desertomycin A was determined at Medina Foundation (Granada, Spain) by the broth microdilution method following the Clinical and Laboratory Standards Institute protocol ([34]) using bacterial strains from the company’s strain collection (Table S4). […] In order to properly assess antibiotic activity of desertomycin A, it was tested, along with some clinically relevant antibiotics, on a panel of Gram-positive and Gram-negative bacteria using the broth microdilution method. […] This can be explained by different physiological conditions of bacterial cultures on the solid agar medium (initial disk assay) and in [compound left out] cultures (CLSI method).

Test [2] concerns T2, Staphylococcus aureus MRSA MB5393.
T2 construct: MB5393 (MRSA)
In words: microbe, parasite or virus in culture. As for the experimental part: as §1

In test [3] the test system is T3, E. faeciumVS.
T3 construct: VS (vancomycin-susceptible)
In words: organism not typed. How it is done: as §1

The subject of test [4] is T4, E. faeciumVR.
T4 construct: VR (vancomycin-resistant)
The experiment in a line: organism not typed. As for the experimental part:
as §1

The next test deals with T5, S. mutans ATCC25175.
T5 construct: ATCC 25175
The experiment in a line: microbe, parasite or virus in culture. Particulars: Streptococcus mutans.

Test [5] relates to T3, E. faeciumVS. The experiment in a line: organism not typed. How it is done: as §1, with “liquid” for “[compound left out]”
The source holds these as a separate data set.

The test system of test [6] is T4, E. faeciumVR. The experiment in a line: organism not typed. How it is done:
as §1, with “liquid” for “[compound left out]”
This is another data set of the same source.

Test [7] concerns T1, Staphylococcus aureus MSSA MB2865. The experiment in a line: microbe, parasite or virus in culture. As for the experimental part: as §1, with “liquid” for “[compound left out]”
This is another data set of the same source.

Test [8] deals with T2, Staphylococcus aureus MRSA MB5393. In words: microbe, parasite or virus in culture. As for the experimental part: as §1, with “liquid” for “[compound left out]”
The source holds these as a separate data set.

Take `C[C@H]1[C@H](NC(=O)/C(=N\OC(C)(C)C(=O)O)c2csc(N)n2)C(=O)N1S(=O)(=O)O` [Aztreonam]: the MIC (in test [1]; in test [2]; against E. faeciumVS [3]; against E. faeciumVR [4]) was greater than 128 µg/mL throughout.
Take `CC1(C)S[C@@H]2[C@H](NC(=O)Cc3ccccc3)C(=O)N2[C@H]1C(=O)O` [Penicillin G]: the MIC was 16 µg/mL (≈ 47.8 µM) in test [1], 16 µg/mL (≈ 47.8 µM) in test [2], greater than 128 µg/mL in the test with E. faeciumVS [3] and greater than 128 µg/mL against E. faeciumVR [4].
As for `C[C@@H](O)[C@H]1C(=O)N2C(C(=O)O)=C(S[C@@H]3CN[C@H](C(=O)N(C)C)C3)[C@H](C)[C@H]12` [Meropenem], the MIC was less than 0.25 µg/mL in test [1], 8 µg/mL (≈ 20.9 µM) in [2], greater than 128 µg/mL in the test on E. faeciumVS [3] and greater than 128 µg/mL in the test on E. faeciumVR [4].
Turning to `CN[C@H](CC(C)C)C(=O)N[C@H]1C(=O)N[C@@H](CC(N)=O)C(=O)N[C@H]2C(=O)N[C@H]3C(=O)N[C@H](C(=O)N[C@H](C(=O)O)c4cc(O)cc(O)c4-c4cc3ccc4O)[C@H](O)c3ccc(c(Cl)c3)Oc3cc2cc(c3O[C@@H]2O[C@H](CO)[C@@H](O)[C@H](O)[C@H]2O[C@H]2C[C@](C)(N)[C@H](O)[C@H](C)O2)Oc2ccc(cc2Cl)[C@H]1O` [Vancomycin], the MIC in test [1] is 2 µg/mL (≈ 1.38 µM); in [2] it was 8 µg/mL (≈ 5.52 µM); in the test with E. faeciumVS [3], 16 µg/mL (≈ 11 µM); with E. faeciumVR [4] it was greater than 128 µg/mL.
`O=C(O)c1cn(C2CC2)c2cc(N3CCNCC3)c(F)cc2c1=O` [Ciprofloxacin]: the MIC in test [1] is less than 0.25 µg/mL; in test [2] it was 0.5 µg/mL (≈ 1.51 µM); with E. faeciumVS [3], greater than 128 µg/mL; in the test on E. faeciumVR [4] it was 16 µg/mL (≈ 48.3 µM).
Turning to `CO[C@H]1/C=C/O[C@@]2(C)Oc3c(C)c(O)c4c(O)c(c(/C=N/N5CCN(C)CC5)c(O)c4c3C2=O)NC(=O)/C(C)=C\C=C\[C@H](C)[C@H](O)[C@@H](C)[C@@H](O)[C@@H](C)[C@H](OC(C)=O)[C@@H]1C` [Rifampicin], the MIC in [1] amounted to 0.5 µg/mL (≈ 0.608 µM); in test [2], 0.5 µg/mL (≈ 0.608 µM); in the test on E. faeciumVS [3] it was 8 µg/mL (≈ 9.72 µM); in the test on E. faeciumVR [4] it was 16 µg/mL (≈ 19.4 µM).
With `C[C@@H](O)[C@H]1C(=O)N2C(C(=O)O)=C(SCCNC=N)C[C@H]12` [Imipenem], the MIC in test [1] was less than 0.25 µg/mL; in test [2], 8 µg/mL (≈ 26.7 µM); in the test with E. faeciumVS [3] it was greater than 128 µg/mL; in the test on E. faeciumVR [4], greater than 128 µg/mL.
As to `CC1=CCCC(C)C(O)C(C)C(O)CCC=CC(C)C(O)C=CC(C)C(O)C(C)=CC(O[C@H]2O[C@H](CO)[C@@H](O)[C@H](O)[C@@H]2O)C(O)CC(O)CC(O)CC(O)C(C)C(O)C(C)C(O)CC(O)CC(O)C=CCC(C(C)C(O)CCCN)OC1=O` (stereo partly shown) [Desertomycin A], the MIC stood at 32 µg/mL (≈ 26.8 µM) against S. mutans ATCC25175; 32 µg/mL (≈ 26.8 µM) in test [1]; 64 µg/mL (≈ 53.7 µM) in [2]; 64 µg/mL (≈ 53.7 µM) against E. faeciumVS [3]; 128 µg/mL (≈ 107 µM) with E. faeciumVR [4].
In the case of `CNC(C)[C@@H]1CC[C@@H](N)[C@@H](O[C@H]2[C@H](O)[C@@H](O[C@H]3OC[C@](C)(O)[C@H](NC)[C@H]3O)[C@H](N)C[C@@H]2N)O1` (stereo partly shown) [Gentamicin], the MIC in the test with E. faeciumVS [5] is greater than 128 µg/mL; in the test on E. faeciumVR [6] it was 32 µg/mL (≈ 67 µM); in test [7], 1 µg/mL (≈ 2.09 µM); in test [8] it was less than 0.25 µg/mL.
